How the values were obtained:
[1] = system: rats suffering thrombopenia induced by carboplatin; assay: Platelet count of rats suffering thrombopenia induced by multiple injections of carboplatin; format: in vivo, Wistar rats; settings: for increase of platelet count compared with the model group: first injection of carboplatin for 10 days
Procedure: (§1) 81 rats are prepared and randomly divided into eight groups: • blank control group, • high-dose group A (4 mg/kg, intraperitoneal injection, non modeling), • model group (40 mg/kg, tail vein injection), • interleukin-11 group (260 μg/kg, subcutaneous injection), • high dose group B (4 mg/kg, intraperitoneal injection, modeling), • high dose group (4 mg/kg, intraperitoneal injection), • middle dose group (1 mg/kg, intraperitoneal injection), and • low dose group (0.25 mg/kg, intraperitoneal injection),
(§2) wherein, the Model group has 11 rats, and the other groups has 10 rats respectively. Before the experiment, the animals are asked to adapt the environment for 2 days, and then blood is taken from their tails for detecting hematological index.
(§3) After administration for 10 days, blood is taken from tails of rats from blank control group, high-dose group A, and positive drug group respectively for detecting hematological index.
(§4) Thereafter, all animals, except for those of blank group and high-dose group A, are individually injected with carboplatin (40 mg/kg) for modeling, and followed by successive administration for 15 days. During these 15 days, the rats of high-dose group A and high dose group B are stopped from administration, and taken blood from the tail on 5th day, 10th day and 15th day after the modeling respectively for detecting hematological indices. After 15th day of modeling, carboplatin (40 mg/kg) is injected again for a second modeling, and all the groups take successive administration according to the foregoing method, once a day for successive 10 days. Before each hematological indices detection, animals are weighed respectively. Taking the tails' blood of rats on 5th day after the second injection of carboplatin for detecting hematological indices, and taking the tails' blood of rats on 10th day after the second injection of carboplatin for detecting the indices of hematology, reticulocytes and coagulation; and weighing animals and killing them; and weighing liver, thymus, spleen and adrenal gland taken from the dead rats, and calculating out viscera indices; further taking out marrow for doing pathological examination.

[2] = Body weight of rats suffering thrombopenia induced by carboplatin; format: in vivo, Wistar rats; settings: 4 mg/kg i.p.
Procedure: as §1, §2, §3, §4

N[C@@H](CNC(=O)C(=O)O)C(=O)O [Dencichine, β-N-oxalyl-L-α, β-diaminopropionic acid]
platelet count ([1]; high dose group A, 4 mg/kg i.p., non modeling, 5th day after first injection of carboplatin): 1113.8 ± 356.97 ×10^9/L
platelet count ([1]; high dose group A, 4 mg/kg i.p., non modeling, 5th day after second injection of carboplatin): 1163.3 ± 233.2 ×10^9/L
platelet count ([1]; high dose group A, 4 mg/kg i.p., non modeling, 10th day after first injection of carboplatin): 638.5 ± 207.9 ×10^9/L
platelet count ([1]; high dose group A, 4 mg/kg i.p., non modeling, 10th day after second injection of carboplatin): 873 ± 147.2 ×10^9/L
platelet count ([1]; high dose group A, 4 mg/kg i.p., non modeling, 15th day after first injection of carboplatin): 799.5 ± 349.8 ×10^9/L
platelet count ([1]; high dose group A, 4 mg/kg i.p., non modeling, before experiment): 625.5 ± 109.3 ×10^9/L
platelet count ([1]; high dose group A, 4 mg/kg i.p., non modeling, prophylactic administration for 10 days): 586.9 ± 139.67 ×10^9/L
platelet count ([1]; high dose group B, 4 mg/kg i.p., prophylactic, modeling, 5th day after first injection of carboplatin): 392.7 ± 116.9 ×10^9/L
platelet count ([1]; high dose group B, 4 mg/kg i.p., prophylactic, modeling, 5th day after second injection of carboplatin): 682.1 ± 266.4 ×10^9/L
platelet count ([1]; high dose group B, 4 mg/kg i.p., prophylactic, modeling, 10th day after first injection of carboplatin): 142.6 ± 78.6 ×10^9/L
platelet count ([1]; high dose group B, 4 mg/kg i.p., prophylactic, modeling, 10th day after second injection of carboplatin): 150.5 ± 99.9 ×10^9/L
platelet count ([1]; high dose group B, 4 mg/kg i.p., prophylactic, modeling, 15th day after first injection of carboplatin): 649.8 ± 234.1 ×10^9/L
platelet count ([1]; high dose group B, 4 mg/kg i.p., prophylactic, modeling, before experiment): 619.7 ± 106.81 ×10^9/L
platelet count ([1]; high dose group, 4 mg/kg i.p., 5th day after first injection of carboplatin): 302.2 ± 62.2 ×10^9/L
platelet count ([1]; high dose group, 4 mg/kg i.p., 5th day after second injection of carboplatin): 758.9 ± 231.2 ×10^9/L
platelet count ([1]; high dose group, 4 mg/kg i.p., 10th day after first injection of carboplatin): 186.9 ± 81.0 ×10^9/L
platelet count ([1]; high dose group, 4 mg/kg i.p., 10th day after second injection of carboplatin): 133.8 ± 126.3 ×10^9/L
platelet count ([1]; high dose group, 4 mg/kg i.p., 15th day after first injection of carboplatin): 1038.3 ± 237.1 ×10^9/L
platelet count ([1]; high dose group, 4 mg/kg i.p., before experiment): 625.7 ± 127.04 ×10^9/L
increase of platelet count compared with the model group ([1]; high-dose group (4 mg/kg i.p.)): 27.1%
platelet count ([1]; low dose group, 0.25 mg/kg i.p., 5th day after first injection of carboplatin): 331.4 ± 76.3 ×10^9/L
platelet count ([1]; low dose group, 0.25 mg/kg i.p., 5th day after second injection of carboplatin): 712.8 ± 324.7 ×10^9/L
platelet count ([1]; low dose group, 0.25 mg/kg i.p., 10th day after first injection of carboplatin): 157.8 ± 49.3 ×10^9/L
platelet count ([1]; low dose group, 0.25 mg/kg i.p., 10th day after second injection of carboplatin): 133 ± 83.661 ×10^9/L
platelet count ([1]; low dose group, 0.25 mg/kg i.p., 15th day after first injection of carboplatin): 956.8 ± 266.5 ×10^9/L
platelet count ([1]; low dose group, 0.25 mg/kg i.p., before experiment): 611.5 ± 90.19 ×10^9/L
platelet count ([1]; middle dose group, 1 mg/kg i.p., 5th day after first injection of carboplatin): 359 ± 102.4 ×10^9/L
platelet count ([1]; middle dose group, 1 mg/kg i.p., 5th day after second injection of carboplatin): 620.2 ± 226.1 ×10^9/L
platelet count ([1]; middle dose group, 1 mg/kg i.p., 10th day after first injection of carboplatin): 197.7 ± 78.8 ×10^9/L
platelet count ([1]; middle dose group, 1 mg/kg i.p., 10th day after second injection of carboplatin): 70.386 ± 36.845 ×10^9/L
platelet count ([1]; middle dose group, 1 mg/kg i.p., 15th day after first injection of carboplatin): 1043.4 ± 288.1 ×10^9/L
platelet count ([1]; middle dose group, 1 mg/kg i.p., before experiment): 623 ± 98 ×10^9/L
increase of platelet count compared with the model group ([1]; middle-dose group (1 mg/kg i.p.)): 34.4%
body weight gain compared with control group ([2]; high dose group A, non modeling): slower body weight gain
body weight ([2]; high dose group A, non modeling, 5th day after first injection of carboplatin): 303.5 ± 17.17 g
body weight ([2]; high dose group A, non modeling, 5th day after second injection of carboplatin): 360.7 ± 24.05 g
body weight ([2]; high dose group A, non modeling, 10th day after first injection of carboplatin): 315.0 ± 17.29 g
body weight ([2]; high dose group A, non modeling, 10th day after second injection of carboplatin): 362.8 ± 28.63 g
body weight ([2]; high dose group A, non modeling, 15th day after first injection of carboplatin): 342.5 ± 19.93 g
body weight ([2]; high dose group A, non modeling, before experiment): 187.5 ± 7.37 g
body weight ([2]; high dose group A, non modeling, prophylactic administration for 10 days): 281.1 ± 13.19 g
body weight ([2]; high dose group B, prophylactic, modeling, 5th day after first injection of carboplatin): 289.9 ± 18.16 g
body weight ([2]; high dose group B, prophylactic, modeling, 5th day after second injection of carboplatin): 317.8 ± 25.87 g
body weight ([2]; high dose group B, prophylactic, modeling, 10th day after first injection of carboplatin): 308.2 ± 16.69 g
body weight ([2]; high dose group B, prophylactic, modeling, 10th day after second injection of carboplatin): 314.7 ± 28.71 g
body weight ([2]; high dose group B, prophylactic, modeling, 15th day after first injection of carboplatin): 318.7 ± 17.76 g
body weight ([2]; high dose group B, prophylactic, modeling, before experiment): 187.6 ± 9.46 g
body weight ([2]; high dose group B, prophylactic, modeling, prophylactic administration for 10 days): 284.7 ± 15.43 g
body weight ([2]; high dose group, 5th day after first injection of carboplatin): 298.8 ± 24.10 g

— US9526713B2, “Use of dencichine in preparation of drug for treating thrombocytopenia” (KUNMING SHENGHUO PHARMACEUTICAL (GROUP) CO., LTD., priority 2013, dated 2016)
